Experimental data reported in BindingDB's records for doi:10.1016/j.bmc.2006.08.003 (Hokuriku University, 2006).

What follows are molecules tested against T1, Lysosomal acid glucosylceramidase (Homo sapiens, UniProt P04062) (assay: In Vitro Enzyme Inhibition). Settings: pH 5.5; 37 °C.
T1 sequence (P04062 whole entry): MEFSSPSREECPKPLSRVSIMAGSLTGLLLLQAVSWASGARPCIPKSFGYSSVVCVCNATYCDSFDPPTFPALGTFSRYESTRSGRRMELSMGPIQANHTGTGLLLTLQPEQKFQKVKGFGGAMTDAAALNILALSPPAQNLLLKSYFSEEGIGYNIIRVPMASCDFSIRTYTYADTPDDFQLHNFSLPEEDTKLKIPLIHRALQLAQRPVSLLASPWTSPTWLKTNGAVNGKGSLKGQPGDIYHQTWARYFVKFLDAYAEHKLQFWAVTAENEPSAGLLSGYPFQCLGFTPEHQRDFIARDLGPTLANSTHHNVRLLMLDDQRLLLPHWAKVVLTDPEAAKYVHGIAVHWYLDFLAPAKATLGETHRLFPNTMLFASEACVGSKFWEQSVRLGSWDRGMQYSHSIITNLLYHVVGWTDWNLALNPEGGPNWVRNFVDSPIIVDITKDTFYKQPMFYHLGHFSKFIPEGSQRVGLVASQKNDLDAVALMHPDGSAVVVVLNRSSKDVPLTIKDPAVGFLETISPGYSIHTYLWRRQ

| SMILES | IC50 [µM] | Ki [µM] |
| --- | --- | --- |
| CCCN1C[C@H](O)[C@@H](O)[C@H](O)[C@H]1CO [(2R,3R,4R,5S)-2-(hydroxymethyl)-1-propylpiperidine-3,4,5-triol] | 700 | – |
| C[C@H]1N[C@H](CO)[C@@H](O)[C@H](O)[C@H]1O [(2R,3R,4R,5S,6R)-2-(hydroxymethyl)-6-methylpiperidine-3,4,5-triol] | 900 | – |
| CN1C[C@H](O)[C@@H](O)[C@H](O)[C@H]1CO [(2R,3R,4R,5S)-2-(hydroxymethyl)-1-methylpiperidine-3,4,5-triol] | 150 | – |
| CCC[C@H]1N[C@H](CO)[C@@H](O)[C@H](O)[C@H]1O [(2R,3R,4R,5S,6R)-2-(hydroxymethyl)-6-propylpiperidine-3,4,5-triol] | 400 | – |
| CCCCCCN1C[C@H](O)[C@@H](O)[C@H](O)[C@H]1CO [(2R,3R,4R,5S)-1-hexyl-2-(hydroxymethyl)piperidine-3,4,5-triol] | 13 | 5.5 |
| CCCC[C@H]1N[C@H](CO)[C@@H](O)[C@H](O)[C@H]1O [(2R,3S,4R,5R,6R)-2-butyl-6-(hydroxymethyl)piperidine-3,4,5-triol] | – | 110 |

Results, then the molecule that gave them:

| IC50 [µM] | Ki [µM] | SMILES |
| --- | --- | --- |
| 0.27 | 0.2 | CCCCCCCCC[C@H]1N[C@H](CO)[C@@H](O)[C@H](O)[C@H]1O [CN-DNJ] |
| 0.5 | 0.28 | CCCCCCCC[C@H]1N[C@H](CO)[C@@H](O)[C@H](O)[C@H]1O [(2R,3R,4R,5S,6R)-2-(hydroxymethyl)-6-octylpiperidine-3,4,5-triol] |
| 4.2 | 2.3 | CCCCCC[C@H]1N[C@H](CO)[C@@H](O)[C@H](O)[C@H]1O [(2R,3S,4R,5R,6R)-2-hexyl-6-(hydroxymethyl)piperidine-3,4,5-triol] |
| 0.82 | 0.42 | CCCCCCCCN1C[C@H](O)[C@@H](O)[C@H](O)[C@H]1CO [(2R,3R,4R,5S)-2-(hydroxymethyl)-1-octylpiperidine-3,4,5-triol] |
